ChEMBL document CHEMBL1201862, “PubChem BioAssay data set” (2004)
Activity calls are given as the source filed them. Unless noted, the rule behind the calls is not given here.

Experiments:
[1] = T. cruzi growth inhibition in host cells, dose response, cell-based, plate reader, dry powder, set 2 (AID 652275); type: functional
[2] = P. falciparum blood-stage growth inhibition, dose response, NF54 strain, plate reader, dry powder (AID 651889); type: functional, cell-based
[3] = T. b. rhodesiense proliferation inhibition, dose response, STIB900 strain, plate reader, dry powder (AID 651894); type: functional, cell-based
[4] = growth inhibition of intracellular T. cruzi, dose response, cell-based, plate reader, dry powder samples (AID 651845); type: functional
[5] = L. donovani amastigote growth inhibition, dose response, axenic amastigotes, plate reader, dry powder (AID 651892); type: functional, cell-based
[6] = cytotoxicity in L-6 rat myocytes, dose response, cytotoxicity control, cell-based, plate reader, cherry-pick (AID 651896); type: functional
[7] = L. donovani amastigote growth inhibition, dose response, axenic amastigotes, plate reader, cherry pick (AID 651891); type: functional, cell-based; conditions: Leishmania donovani
[8] = T. b. rhodesiense proliferation inhibition, dose response, STIB900 strain, plate reader, cherry pick (AID 651893); type: functional, cell-based; conditions: Trypanosoma brucei
[9] = intracellular Trypanosoma cruzi inhibitors in host cells – cell-based, plate reader, cherry-pick samples, set 3, dose response (AID 651818); type: functional;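 also: compounds incubated with infected cells for about four days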
[10] = L-6 rat myoblast cytotoxicity, dose response, counter-screen for T. cruzi inhibitor project, cell-based, plate reader, dry powder (AID 651895); type: functional
[11] = T. cruzi intracellular amastigote growth inhibition, dose response, imaging, CA-I/72 strain, bovine embryo skeletal muscle, dry powder (AID 651885); type: functional, cell-based
[12] = T. cruzi amastigote growth inhibition, dose response, Tulahuen strain, L-6 host cells, dry powder (AID 651890); type: functional, cell-based
[13] = IGROV1 ovarian cancer cell cytotoxicity, dose response, PAX8 inhibitor project, plate reader, dry powder samples (AID 743043); type: functional, cell-based; conditions: IGROV-1
[14] = cytotoxicity dependent on PAX8, dose response, cell-based, plate reader, dry powder (AID 743049); type: functional
[15] = PAX5 activity inhibitors, dose response, selectivity assay for PAX8 inhibitor project, cell-based, plate reader, dry powder samples (AID 743047); type: functional;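 also: HEK293 cells carrying a Pax5 driven CD19 promoter luciferase reporter; potency of inhibitors that lower reporter luminescence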
[16] = cytotoxicity in COV434 cells, dose response, cytotoxicity control for PAX8 inhibitor project, cell-based, plate reader, dry powder, SA7 (AID 743145); type: functional
[17] = P. falciparum Dd2 growth inhibitors, dose response, SYBR Green, cherry-picked samples (AID 1159567); type: functional, cell-based
[18] = cytotoxicity in OV-90 ovarian cancer cells, dose response, PAX8 inhibitor project, cell-based, plate reader, dry powder, SA8 (AID 743149); type: functional
Paired box protein Pax-8 = Paired box protein Pax-8 (Homo sapiens, UniProt Q06710); assay: inhibitors of PAX8-driven TPO luciferase reporter, dose response, RMG-I cells, cherry-pick (AID 687027); type: functional, cell-based;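 also: luciferase reporter driven by Pax8 target thyroperoxidase promoter measured by SteadyGlo luminescence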
Paired box protein Pax-8, sequence (Q06710 whole entry): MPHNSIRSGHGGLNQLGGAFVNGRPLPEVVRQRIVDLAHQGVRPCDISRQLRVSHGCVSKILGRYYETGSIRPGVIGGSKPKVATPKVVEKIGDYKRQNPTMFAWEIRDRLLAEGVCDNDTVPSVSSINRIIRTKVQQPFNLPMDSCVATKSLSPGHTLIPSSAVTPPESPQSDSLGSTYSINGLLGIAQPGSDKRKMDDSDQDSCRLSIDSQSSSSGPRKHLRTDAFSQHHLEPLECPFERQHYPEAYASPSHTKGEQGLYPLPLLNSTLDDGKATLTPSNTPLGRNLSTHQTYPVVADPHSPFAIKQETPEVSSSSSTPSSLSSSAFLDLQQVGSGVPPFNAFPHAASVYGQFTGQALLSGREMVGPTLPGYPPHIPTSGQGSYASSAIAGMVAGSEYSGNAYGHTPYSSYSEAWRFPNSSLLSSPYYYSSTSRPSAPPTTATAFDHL

[19] = cytotoxicity in OVCAR8 ovarian cancer cells, dose response, PAX8 project, cell-based, plate reader, dry powder samples (AID 743197); type: functional; conditions: OVCAR-8
[20] = NIH:OVCAR-3 ovarian cancer cell cytotoxicity, dose response, PAX8 inhibitor project, plate reader, dry powder samples (AID 743044); type: functional, cell-based
[21] = PAX2 cell-based inhibition, dose response, selectivity assay for PAX8 inhibitor project, plate reader, dry powder samples (AID 743048); type: functional;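 also: HEK293 cells carrying a WT1 promoter luciferase reporter driven by expressed Pax2; potency is for inhibition of Pax2 driven reporter signal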
[22] = HepG2 cell cytotoxicity, dose response, cytotoxicity control, cherry-picked samples (AID 1159577); type: functional, cell-based
[23] = cytotoxicity toward Colo320 cells – cell-based, CellTiter-Glo luminescence, IC50, dose response (AID 1117334); type: functional; conditions: COLO 320
[24] = cytotoxicity toward HCT116 cells – cell-based, CellTiter-Glo luminescence, IC50, dose response (AID 1117332); type: functional; conditions: HCT-116
[25] = SNU-C1 cell viability reduction, dose response, CellTiter-Glo luminescence (AID 1117323); type: functional, cell-based
[26] = cytotoxicity toward HT-29 cells – cell-based, CellTiter-Glo luminescence, IC50, dose response (AID 1117330); type: functional
[27] = HCT116 cell viability decrease, GSK3B pretreatment – CellTiter-Glo, IC50, dose response (AID 1117339); type: functional; conditions: HCT-116
[28] = Concentration-dependent survival of SW480 colon cancer line, luminescence detection with CellTiter-Glo, half-maximal inhibitory concentration (AID 1117338); type: functional
[29] = CellTiter-Glo luminescent dose response of DLD-1 viability loss (AID 1117352); type: functional
[30] = RKO cell viability reduction, dose response, CellTiter-Glo luminescence (AID 1117322); type: functional
[31] = target: G-protein coupled receptor 183 (Homo sapiens, UniProt P32249); assay: SAR confirmation of small molecule antagonists of the EBI2 receptor via a luminescent beta-arrestin assa.; type: functional
G-protein coupled receptor 183, sequence (P32249 whole entry): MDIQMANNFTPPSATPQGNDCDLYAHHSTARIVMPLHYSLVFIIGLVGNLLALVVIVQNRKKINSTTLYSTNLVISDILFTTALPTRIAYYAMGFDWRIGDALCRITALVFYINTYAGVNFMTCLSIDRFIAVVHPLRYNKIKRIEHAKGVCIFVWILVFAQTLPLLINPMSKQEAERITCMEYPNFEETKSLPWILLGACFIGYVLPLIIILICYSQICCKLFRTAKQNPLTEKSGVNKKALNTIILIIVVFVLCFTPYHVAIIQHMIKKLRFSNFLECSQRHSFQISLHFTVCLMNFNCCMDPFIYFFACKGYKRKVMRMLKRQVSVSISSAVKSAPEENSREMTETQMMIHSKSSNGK

[32] = P. falciparum Dd2 growth inhibitors, dose response, SYBR Green, dry powder samples, set 4 (AID 1159572); type: functional, cell-based
[33] = Orthopox viral replication plaque formation Measured in Cell-Based and Microorganism Combination System Using Imaging - 2142-05_Inhibitor_Dose_DryPowder_Activity.; type: functional
[34] = HeLa 4N DNA content increase, dose response, cell-based, IC50 (AID 1117351); type: functional
[35] = target: T1, Oxysterols receptor LXR-beta (Homo sapiens, UniProt P55055); type: functional, cell-based
T1 sequence (P55055 whole entry): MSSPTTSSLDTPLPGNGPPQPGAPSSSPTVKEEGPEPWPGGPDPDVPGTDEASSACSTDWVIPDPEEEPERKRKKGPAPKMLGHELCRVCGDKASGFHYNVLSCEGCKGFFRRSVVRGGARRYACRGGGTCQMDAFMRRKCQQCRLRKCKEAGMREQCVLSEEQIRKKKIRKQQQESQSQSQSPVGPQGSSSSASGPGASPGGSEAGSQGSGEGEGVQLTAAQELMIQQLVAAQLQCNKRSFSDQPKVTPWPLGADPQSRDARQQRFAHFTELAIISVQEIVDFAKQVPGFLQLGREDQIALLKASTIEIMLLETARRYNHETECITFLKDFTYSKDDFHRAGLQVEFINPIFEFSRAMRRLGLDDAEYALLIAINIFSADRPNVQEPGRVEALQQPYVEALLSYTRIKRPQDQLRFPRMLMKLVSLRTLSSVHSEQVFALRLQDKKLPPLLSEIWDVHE

[36] = target: T1, Oxysterols receptor LXR-beta; type: functional, cell-based; remark: listed apart in the source
[37] = HeLa 2N DNA content increase, dose response, cell-based, IC50 (AID 1117349); type: functional

For `C[C@@H]1CN([C@H](C)CO)C(=O)c2cccc(NC(=O)c3ccncc3)c2O[C@@H]1CN(C)Cc1ccc(Oc2ccccc2)cc1`, the AC50 [1] was 0.309 µM (active), the IC50 [2] was 2.23 µM (inactive) and the IC50 [3] was 1.31 µM (inactive). For the same compound, the AC50 [4] was 0.286 µM (active), the IC50 [5] was > 100 µM (inactive) and the IC50 [6] was 44.2 µM (inactive). For the same compound, the IC50 [7] was > 100 µM (inactive), the IC50 [8] was 2.63 µM (inactive) and the AC50 [9] was 1.05 µM (active). The IC50 [10] was 64.6 µM (inactive), the IC50 [11] was 2 µM (active) and the IC50 [12] was 1.16 µM (active).
In the case of `COc1cccc(C#Cc2ccc([C@H]3[C@@H](CO)N(C(=O)c4ccccn4)[C@H]3C#N)cc2)c1`, the AC50 [13] is reported as 17.8 µM (active), the AC50 [14] is reported as 10.4 µM (active) and the AC50 [15] is reported as 7.82 µM (active). The AC50 [16] was 18.4 µM (active), the AC50 [17] was 1.27 µM (active) and the AC50 [18] was 24.1 µM (active). For the same compound, the AC50 (Paired box protein Pax-8) was 2.41 µM (active), the AC50 [19] was 51.4 µM (active) and the AC50 [20] was 14.6 µM (active). For the same compound, the AC50 [21] was 9.59 µM (active) and the AC50 [22] was > 39 µM (inactive).
For `CCCCCCCC[N+](C)(C)CCCCCCCC`, the IC50 [23] was 4.66 µM (active), the IC50 [24] was 6.24 µM (inactive) and the IC50 [25] was 1.44 µM (active). The IC50 [26] was 4 µM (active), the IC50 [27] was 3.69 µM (active) and the IC50 [28] was 3.46 µM (active). For the same compound, the IC50 [29] was 3.22 µM (active) and the IC50 [30] was 2.18 µM (active).
In the case of `Cc1ccccc1/C=C/C(=O)N1CCN(S(=O)(=O)c2ccc(Br)cc2)CC1`, the IC50 [31] is reported as 0.187 µM (active).
With `COc1ccc2c3c([nH]c2c1)[C@H](CO)N(C(C)=O)CC31CCN(C(=O)c2cccc(F)c2)CC1` the AC50 [32] was 14.1 µM (active).
In the case of `CO[C@H]1CN(C)C(=O)c2ccc(NC(=O)c3ccc(F)cc3)cc2OC[C@H](C)N(C(=O)c2ccc(F)cc2)C[C@@H]1C`, the AC50 [33] is reported as 5.72 µM (active).
For `O=c1[nH]c(=O)n([C@H]2C[C@H](O)[C@@H](CO)O2)cc1Br` [BROXURIDINE], the IC50 [34] was > 10 µM (inactive), the EC50 (cells) was > 67.5 µM (inactive) and the EC50 [35] was > 67.6 µM (inactive). The EC50 [36] was > 67.5 µM (inactive) and the IC50 [37] was > 10 µM (inactive).
